Values of other authors as cited in patent publication US8865644B2, “Rapamycin formulation using recombinant high-density lipoprotein including apolipoprotein A-I and a mutant thereof” (Industry-Academic Cooperation Foundation, Yeungnam …, priority 2010, dated 2014).

solubility in water, aliphatic hydrocarbon and diethylether: hardly dissolved
Compound: CO[C@H]1C[C@@H]2CC[C@@H](C)[C@@](O)(O2)C(=O)C(=O)N2CCCC[C@H]2C(=O)O[C@H]([C@H](C)C[C@@H]2CC[C@@H](O)[C@H](OC)C2)CC(=O)[C@H](C)/C=C(\C)[C@@H](O)[C@@H](OC)C(=O)[C@H](C)C[C@H](C)/C=C/C=C/C=C/1C [rapamycin]
